US5142051A, “N-phosphonylmethoxyalkyl derivatives of pyrimidine and purine bases and a therapeutical composition therefrom with antiviral activity” (Ceskoslovenska Akademie Ved, priority 1986, dated 1992)
Values after ≈ are worked out from the molar mass of the structure shown. Read-outs that look alike come from different tables or passages of the source.

How the values were obtained:
HSV-1 (KOS) = test: Inhibition of virus-induced cytopathic effect in PRK-cells, HSV-1 (KOS); assay type: cell-based; details: read-out: MIC50
HSV-1 (F) = test: Inhibition of virus-induced cytopathic effect in PRK-cells, HSV-1 (F); assay type: cell-based; details: read-out: MIC50
HSV-1 (McIntyre) = test: Inhibition of virus-induced cytopathic effect in PRK-cells, HSV-1 (McIntyre); assay type: cell-based; details: read-out: MIC50
HSV-2 (G) = test: Inhibition of virus-induced cytopathic effect in PRK-cells, HSV-2 (G); assay type: cell-based; details: read-out: MIC50
HSV-2 (196) = test: Inhibition of virus-induced cytopathic effect in PRK-cells, HSV-2 (196); assay type: cell-based; details: read-out: MIC50
HSV-2 (Lyons) = test: Inhibition of virus-induced cytopathic effect in PRK-cells, HSV-2 (Lyons); assay type: cell-based; details: read-out: MIC50
vaccinia virus (VV) = test: microbe, parasite or virus in culture; assay type: cell-based; details: Orthopoxvirus vaccinia, PRK, read-out: MIC50
[1] = system: strains or mutants devoid of thymidine kinase; details: in words; cited from earlier work
[2] = Cytotoxicity: observable morphological changes in uninfected tissue culture cells; details: rabbit, prk cells
HSV-1 TK^- (Cheng) = test: Inhibition of virus-induced cytopathic effect in PRK-cells, HSV-1 TK^- (Cheng); assay type: cell-based; details: Human alphaherpesvirus 1, PRK, read-out: MIC50
HSV-1 TK^- (Field) = test: Inhibition of virus-induced cytopathic effect in PRK-cells, HSV-1 TK^- (Field); assay type: cell-based; details: Human alphaherpesvirus 1, PRK, read-out: MIC50
[3] = in words; cited from earlier work
[4] = system: TK^- mutants of herpes viruses type 1 and 2; test: Antiviral effect against TK^- mutants of herpes viruses; assay type: cell-based; details: in words
vaccinia virus = assay type: cell-based; details: in words
DNA viruses = details: background statement, in words; cited from earlier work
[5] = Human alphaherpesvirus 1, HSV-1 (KOS), PRK-cells, 50% inhibition of cytopathic effect
[6] = Human alphaherpesvirus 1, HSV-1 (F), PRK-cells, 50% inhibition of cytopathic effect
[7] = Human alphaherpesvirus 1, HSV-1 (McIntyre), PRK-cells, 50% inhibition of cytopathic effect
[8] = Human alphaherpesvirus 2, HSV-2 (G), PRK-cells, 50% inhibition of cytopathic effect
[9] = Human alphaherpesvirus 2, HSV-2 (196), PRK-cells, 50% inhibition of cytopathic effect
[10] = Human alphaherpesvirus 2, HSV-2 (Lyons), PRK-cells, 50% inhibition of cytopathic effect

SMILES | EC50 (vaccinia virus (VV)) [µg/mL] | MCC [2] [µg/mL] | EC50 (HSV-1 (KOS); [5]) [µg/mL] | EC50 (HSV-1 (F); [6]) [µg/mL] | EC50 (HSV-1 (McIntyre); [7]) [µg/mL] | EC50 (HSV-2 (G); [8]) [µg/mL] | EC50 (HSV-2 (196); [9]) [µg/mL] | EC50 (HSV-2 (Lyons); [10]) [µg/mL] | EC50 (HSV-1 TK^- (Field)) [µg/mL] | other results
O=c1[nH]c(=O)n([C@H]2C[C@H](O)[C@@H](CO)O2)cc1C=CBr [5-(2-Bromovinyl)-2'-deoxyuridine, 5-(2-bromovinyl)-2' -deoxyuridine, reference compound] | 7 (≈ 21 µM) | 400 |  |  |  |  |  |  |  | EC50 (HSV-1 (KOS); Human alphaherpesvirus 1, PRK): 0.02 µg/mL (≈ 0.06 µM); EC50 (HSV-1 (F); Human alphaherpesvirus 1, PRK): 0.02 µg/mL (≈ 0.06 µM); EC50 (HSV-1 (McIntyre); Human alphaherpesvirus 1, PRK): 0.02 µg/mL (≈ 0.06 µM); EC50 (HSV-2 (G); Human alphaherpesvirus 2, PRK): 4 µg/mL (≈ 12 µM); EC50 (HSV-2 (196); Human alphaherpesvirus 2, PRK): 1 µg/mL (≈ 3 µM); EC50 (HSV-2 (Lyons); Human alphaherpesvirus 2, PRK): 10 µg/mL (≈ 30 µM); sensitivity of strains or mutants devoid of thymidine kinase [1]: usually also resistant
Nc1nc(N)c2ncn(C[C@@H](CO)OCP(=O)(O)O)c2n1 [2-Aminoadenin-9-yl, (S)--CH2 OH] | 0.7 (≈ 2.2 µM) | 200 | 20 (≈ 62.8 µM) | 7 (≈ 22 µM) | 2 (≈ 6.28 µM) | 4 (≈ 12.6 µM) | 7 (≈ 22 µM) | 7 (≈ 22 µM) |  | 
Cc1cn(C[C@@H](CO)OCP(=O)(O)O)c(=O)[nH]c1=O [Thymin-1-yl, (S)--CH2 OH] | 300 (≈ 1020 µM) | 400 | 70 (≈ 238 µM) | 150 (≈ 510 µM) | 70 (≈ 238 µM) | 20 (≈ 68 µM) | 150 (≈ 510 µM) | 70 (≈ 238 µM) | 200 (≈ 680 µM) | EC50 (HSV-1 TK^- (Cheng)): 400 µg/mL (≈ 1360 µM)
NNc1ncnc2c1ncn2CC(CO)OCP(=O)(O)O (racemic) [6-Hydrazinopurin-9-yl, (RS)--CH2 OH] | 20 (≈ 62.8 µM) | 400 | 150 (≈ 471 µM) | 70 (≈ 220 µM) | 70 (≈ 220 µM) | 70 (≈ 220 µM) | 70 (≈ 220 µM) | 70 (≈ 220 µM) | 40 (≈ 126 µM) | 
Nc1ccn(C[C@@H](CO)OCP(=O)(O)O)c(=O)n1 [Cytosin-1-yl, (S)--CH2 OH] | 0.2 (≈ 0.716 µM) | 100 |  |  |  |  |  |  | 7 (≈ 25.1 µM) | EC50 (HSV-1 (KOS); Human alphaherpesvirus 1, PRK): 7 µg/mL (≈ 25.1 µM); EC50 (HSV-1 (F); Human alphaherpesvirus 1, PRK): 2 µg/mL (≈ 7.16 µM); EC50 (HSV-1 (McIntyre); Human alphaherpesvirus 1, PRK): 1 µg/mL (≈ 3.58 µM); EC50 (HSV-2 (G); Human alphaherpesvirus 2, PRK): 20 µg/mL (≈ 71.6 µM); EC50 (HSV-2 (196); Human alphaherpesvirus 2, PRK): 2 µg/mL (≈ 7.16 µM); EC50 (HSV-2 (Lyons); Human alphaherpesvirus 2, PRK): 20 µg/mL (≈ 71.6 µM); EC50 (HSV-1 TK^- (Cheng)): 10 µg/mL (≈ 35.8 µM)
Nc1nc2c(ncn2COCCO)c(=O)[nH]1 [Zovirax] |  |  |  |  |  |  |  |  |  | sensitivity of strains or mutants devoid of thymidine kinase [1]: not sensitive
Nc1nc2c(ncn2CC(CO)OCP(=O)(O)O)c(=O)[nH]1 (racemic) [Guanin-9-yl, (RS)--CH2 OH] | 2 (≈ 6.27 µM) | 400 | 20 (≈ 62.7 µM) | 7 (≈ 21.9 µM) | 2 (≈ 6.27 µM) | 20 (≈ 62.7 µM) | 20 (≈ 62.7 µM) | 20 (≈ 62.7 µM) | 10 (≈ 31.3 µM) | 
Nc1nc2c(ncn2COC(CO)CO)c(=O)[nH]1 [DHPG, 9-(1,3-dihydroxy-2-propoxymethyl)guanine] |  |  |  |  |  |  |  |  |  | sensitivity of strains or mutants devoid of thymidine kinase [1]: not sensitive; water-solubility [3]: low water-solubility
Nc1ncnc2c1ncn2CCOCP(=O)(O)O [PMEA, 9-(2-phosphonylmethoxyethyl)adenine] |  |  |  |  |  |  |  |  |  | effect against TK^- mutants of herpes viruses type 1 and 2 [4]: highly effective; effect against vaccinia virus (vaccinia virus): highly effective; antiviral activity (DNA viruses): very potent antivirals, acting specifically against DNA viruses; effect where Zovirax, DHPG fail [1]: effective even in those cases where the above-mentioned drugs fail
Nc1nc2c(ncn2CCOCP(=O)(O)O)c(=O)[nH]1 [Guanin-9-yl, H] | 7 (≈ 24.2 µM) | 40 | 7 (≈ 24.2 µM) | 2 (≈ 6.92 µM) | 2 (≈ 6.92 µM) | 4 (≈ 13.8 µM) | 2 (≈ 6.92 µM) | 7 (≈ 24.2 µM) |  | 
Nc1ncnc2c1ncn2C[C@@H](CO)OCP(=O)(O)O [Adenin-9-yl, (S)--CH2 OH, 9-(S)-(2-phosphonylmethoxy-3-hydroxypropyl)adenine, reference compound] | 7 (≈ 23.1 µM) | 100 | 20 (≈ 66 µM) | 7 (≈ 23.1 µM) | 1 (≈ 3.3 µM) | 20 (≈ 66 µM) | 7 (≈ 23.1 µM) | 20 (≈ 66 µM) |  | effect against TK^- mutants of herpes viruses type 1 and 2 [4]: highly effective; effect against vaccinia virus (vaccinia virus): highly effective; antiviral activity (DNA viruses): very potent antivirals, acting specifically against DNA viruses; effect where Zovirax, DHPG fail [1]: effective even in those cases where the above-mentioned drugs fail
Nc1nccc2c1ncn2C[C@@H](CO)OCP(=O)(O)O [3-Deazaadenin-9-yl, (S)--CH2 OH] |  | 40 | 0.2 (≈ 0.662 µM) | 0.2 (≈ 0.662 µM) | 0.7 (≈ 2.32 µM) | 0.1 (≈ 0.331 µM) | 0.7 (≈ 2.32 µM) | 0.2 (≈ 0.662 µM) |  | 
Nc1ncc2ncn(CCOCP(=O)(O)O)c2n1 [2-Aminopurin-9-yl, H] | 200 (≈ 732 µM) | 200 | 70 (≈ 256 µM) | 70 (≈ 256 µM) | 70 (≈ 256 µM) | 20 (≈ 73.2 µM) | 20 (≈ 73.2 µM) | 7 (≈ 25.6 µM) | 150 (≈ 549 µM) | EC50 (HSV-1 TK^- (Cheng)): 150 µg/mL (≈ 549 µM)
O=P(O)(O)COC(CO)Cn1cnc2c(NO)ncnc21 (racemic) [6-Hydroxylaminopurin-9-yl, (RS)--CH2 OH] | 7 (≈ 21.9 µM) | 400 | 20 (≈ 62.7 µM) | 20 (≈ 62.7 µM) | 7 (≈ 21.9 µM) | 20 (≈ 62.7 µM) | 20 (≈ 62.7 µM) | 20 (≈ 62.7 µM) |  | 
Nc1nc(N)c2ncn(CCOCP(=O)(O)O)c2n1 [2-Aminoadenin-9-yl, H] | 70 (≈ 243 µM) | 200 | 7 (≈ 24.3 µM) | 2 (≈ 6.94 µM) | 2 (≈ 6.94 µM) | 2 (≈ 6.94 µM) | 2 (≈ 6.94 µM) | 2 (≈ 6.94 µM) |  | 
